Measurements published in patent publication US10011590B2, “Crystalline forms of vilazodone hydrochloride and vilazodone free base” (DR. REDDY'S LABORATORIES LIMITED, priority 2012, dated 2018).

Experiment: Effect of variation of water (and solvent) content on stability and PXRD pattern of the solid form
Type: physicochemical
Details: for effect of variation of water content on stability and PXRD pattern: variation of water content within the stated range

SMILES: Cl.N#Cc1ccc2[nH]cc(CCCCN3CCN(c4ccc5oc(C(N)=O)cc5c4)CC3)c2c1 [Form C, 2-benzofurancarboxamide, 5-[4-[4-(5-cyano-1H-indol-3-yl)butyl]-1-piperazinyl]-, hydrochloride (1:1)]
- effect of variation of water content on stability and PXRD pattern (listed as vilazodone hydrochloride crystalline form C): may not affect the stability and PXRD pattern

SMILES: Cl.N#Cc1ccc2[nH]cc(CCCCN3CCN(c4ccc5oc(C(N)=O)cc5c4)CC3)c2c1 [2-benzofurancarboxamide, 5-[4-[4-(5-cyano-1H-indol-3-yl)butyl]-1-piperazinyl]-, hydrochloride (1:1)]
- effect of variation of water content on stability and PXRD pattern: does not affect the stability and PXRD pattern

SMILES: N#Cc1ccc2[nH]cc(CCCCN3CCN(c4ccc5oc(C(N)=O)cc5c4)CC3)c2c1 [form I of vilazodone free base, vilazodone free base]
- effect of variation of water content on stability and PXRD pattern: does not affect the stability and PXRD pattern

SMILES: Cl.N#Cc1ccc2[nH]cc(CCCCN3CCN(c4ccc5oc(C(N)=O)cc5c4)CC3)c2c1 [Form B, 2-benzofurancarboxamide, 5-[4-[4-(5-cyano-1H-indol-3-yl)butyl]-1-piperazinyl]-, hydrochloride (1:1)]
- effect of variation of water content on stability and PXRD pattern (listed as crystalline form B of vilazodone hydrochloride): may not affect the stability and PXRD pattern

SMILES: Cl.N#Cc1ccc2[nH]cc(CCCCN3CCN(c4ccc5oc(C(N)=O)cc5c4)CC3)c2c1 [Form D, 2-benzofurancarboxamide, 5-[4-[4-(5-cyano-1H-indol-3-yl)butyl]-1-piperazinyl]-, hydrochloride (1:1)]
- effect of variation of water and solvents on stability and PXRD pattern (variation of water and solvent content of the mixed solvates): may not affect the stability and PXRD pattern
